Source: US8999986B2, “Pyrrolo [2,3—D] pyrazin—7—ylpyrimidine compounds” (Merck Patent GmbH, priority 2009, dated 2015)
Where two headings read alike, the source gives them in different places.

What was measured:
[1] = test system: phospho-T308-PKB in PC3 cells; test: Cellular testing of PDK1 kinase inhibitors in PC3 cells (Luminex, phospho-T308-PKB); assay type: cell-based; settings: Homo sapiens
Procedure: Method for the Cellular Testing of PDK1 Kinase Inhibitors in PC3 Cells.
The cellular assay for the determination of the PDK1 kinase activity is carried out as a Luminex assay in the 96-well format. PC3 cells are sown at 20,000 cells per well in 100 μl of medium (45% of […]/45% of Ham's F12/10% of FCS) and incubated on the following day for 30 min with a serial dilution of the test substance (7 concentrations) under serum-free conditions. The cells are subsequently lysed using 90 μl of lysis buffer (20 mM tris/HCl pH 8.0, 150 mM NaCl, 1% of NP40, 10% of glycerol, 1% of phosphatase inhibitor I, 1% of phosphatase inhibitor II, 0.1% of protease inhibitor cocktail 111, 0.01% of benzonase) per well, and the lysates are separated off from insoluble cell constituents by means of centrifugation through a 96-well filter plate (0.65 μm). The lysates are incubated overnight at 4° C. with shaking with Luminex beads to which an anti-total PKB antibody is coupled. The detection is carried out on the following day by addition of a phospho-T308-PKB antibody and a species-specific […] secondary antibody. The detection of phospho-T308-PKB is carried out by measurement in a Luminex100 instrument by determination of 100 events per cavity in a measurement time of 60 sec. As pharmacological blank, the signals obtained from cells which have been treated with 10 μM staurosporin are subtracted from all other batches. The control value used for maximum phosphorylation of PKB on T308 are the signals from cells which have only been treated with the solvent (0.3% of DMSO). The values of the batches treated with test substance are calculated therefrom as percentage of control, and IC50 values are determined by means of RS1.

PDK1 = target: T1, PDK1 (Homo sapiens, UniProt O15530); test: Test for the inhibition of PDK1 (flashplate, 33P-ATP); assay type: biochemical; settings: His6-PDK1(1-50) 3.4 nM, 4 μM ATP, 30° C., 60 min
T1 construct: His6 (N)
T1 sequence (O15530 51-556 limits assumed): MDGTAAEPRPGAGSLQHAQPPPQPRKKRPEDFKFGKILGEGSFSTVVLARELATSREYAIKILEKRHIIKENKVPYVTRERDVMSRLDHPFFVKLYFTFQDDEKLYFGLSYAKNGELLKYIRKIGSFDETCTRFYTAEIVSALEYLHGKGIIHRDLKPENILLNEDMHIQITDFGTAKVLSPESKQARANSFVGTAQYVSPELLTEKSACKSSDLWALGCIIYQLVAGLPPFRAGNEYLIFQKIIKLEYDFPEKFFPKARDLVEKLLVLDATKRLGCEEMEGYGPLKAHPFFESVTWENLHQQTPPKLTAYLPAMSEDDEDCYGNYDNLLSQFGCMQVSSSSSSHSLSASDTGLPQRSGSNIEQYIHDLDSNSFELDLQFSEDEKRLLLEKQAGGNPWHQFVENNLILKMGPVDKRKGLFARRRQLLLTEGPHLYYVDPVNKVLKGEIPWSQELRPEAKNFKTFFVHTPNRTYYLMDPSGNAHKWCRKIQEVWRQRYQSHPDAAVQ
Procedure: The experimental batches are carried out in a flashplate system with 384 wells/microtitration plate.
In each case, the PDK1 sample His6-PDK1(1-50)(3.4 nM), the PDK1 substrate biotin-bA-bA-[…] (400 nM), 4 μM ATP (with 0.2 μCi of ^33P-ATP/well) and the test substance in 50 μl of conventional experimental solution per well are incubated at 30° C. for 60 min. The test substances are employed in corresponding concentrations (if desired in a dilution series). The control is carried out without test substance. The reaction is stopped using standard methods and washed. The activity of the kinase is measured via the incorporated radioactivity in top count. In order to determine the non-specific kinase reaction (blank value), the experimental batches are carried out in the presence of 100 nM staurosporin.
The radioactivity (decompositions per minute) of the blank value (no use of test substance in the presence of staurosporin) is subtracted from all other radioactivity values. The controls (kinase activity without test substance) are set equal to 100 percent and all other radioactivity values (after subtracting the blank value) are expressed set in relation thereto (for example in % of the control).
[formula] IC50 values (50% inhibition) are determined with the aid of statistics pro-grammes, such as, for example, RS1.

[2] = PC-3, cellular assay, cell line not named, read-out: IC50 [cell]

Row | SMILES | IC50 [1, 2] [nM] | IC50 (PDK1) [nM] | IC50 ([1]; PC-3, 0.5 h, PC3 cells, 30 min with test substance, serum-free, read-out: IC50 [P-PKB T308]) [nM]
1 | Cn1cc(-c2cnc3[nH]cc(-c4cc([C@@](C)(O)c5ccccc5F)nc(N)n4)c3n2)cn1 (single isomer, unassigned) [A8] | 570 | 43 | –
2 | Cn1cc(-c2cnc3[nH]cc(-c4cc([C@](C)(O)c5ccccc5F)nc(N)n4)c3n2)cn1 (single isomer, unassigned) [A9] | 150 | 47 | –
3 | CC[C@](O)(c1cccc(F)c1)c1cc(-c2c[nH]c3ncc(-c4cnn(C)c4)nc23)nc(N)n1 (single isomer, unassigned) [A29] | 2.2 | 90 | –
4 | CC[C@@](O)(c1cccc(F)c1)c1cc(-c2c[nH]c3ncc(-c4cnn(C)c4)nc23)nc(N)n1 (single isomer, unassigned) [A30] | 21 | 18 | –
5 | CC[C@@](O)(c1cc(-c2c[nH]c3ncc(-c4cnn(C)c4)nc23)nc(N)n1)c1ccccc1F (single isomer, unassigned) [A31] | 4.8 | 24 | –
6 | CC[C@](O)(c1cc(-c2c[nH]c3ncc(-c4cnn(C)c4)nc23)nc(N)n1)c1ccccc1F (single isomer, unassigned) [A32] | 2.9 | 95 | –
7 | COCOC(C)(c1cccc(F)c1)c1cc(-c2c[nH]c3ncc(-c4cnn(C)c4)nc23)nc(N)n1 (stereo not drawn) [A2, 4-[1-(3-fluorophenyl)-1-methoxymethoxyethyl]-6-[2-(1-methyl-1H-pyrazol-4-yl)-5H-pyrrolo[2,3-b]pyrazin-7-yl]pyrimidin-2-ylamine] | – | 120 | 810
8 | Cn1cc(-c2cnc3[nH]cc(-c4cc(C(C)(O)c5cccc(F)c5)nc(N)n4)c3n2)cn1 (stereo not drawn) [A3, 1-{2-amino-6-[2-(1-methyl-1H-pyrazol-4-yl)-5H-pyrrolo[2,3-b]pyrazin-7-yl]-pyrimidin-4-yl}-1-(3-fluorophenyl)ethanol] | 530 | 71 | –
9 | Cn1cc(-c2cnc3[nH]cc(-c4cc(C(C)(O)c5ccccc5)nc(N)n4)c3n2)cn1 (stereo not drawn) [A4, 1-{2-Amino-6-[2-(1-methyl-1H-pyrazol-4-yl)-5H-pyrrolo[2,3-b]pyrazin-7-yl]-pyrimidin-4-yl}-1-phenylethanol] | 570 | 55 | –
10 | COCOC(C)(c1ccccc1)c1cc(-c2c[nH]c3ncc(-c4cnn(C)c4)nc23)nc(N)n1 (stereo not drawn) [A5, 4-(1-Methoxymethoxy-1-phenylethyl)-6-[2-(1-methyl-1H-pyrazol-4-yl)-5H-pyrrolo[2,3-b]pyrazin-7-yl]pyrimidin-2-ylamine] | 420 | 90 | –
11 | Cn1cc(-c2cnc3[nH]cc(-c4cc(C(C)(O)c5ccccc5F)nc(N)n4)c3n2)cn1 (stereo not drawn) [A6, 1-{2-Amino-6-[2-(1-methyl-1H-pyrazol-4-yl)-5H-pyrrolo[2,3-b]pyrazin-7-yl]-pyrimidin-4-yl}-1-(2-fluorophenyl)ethanol] | 190 | 31 | –
12 | COCOC(C)(c1cc(-c2c[nH]c3ncc(-c4cnn(C)c4)nc23)nc(N)n1)c1ccccc1F (stereo not drawn) [A7, 4-[1-(2-Fluorophenyl)-1-methoxymethoxyethyl]-6-[2-(1-methyl-1H-pyrazol-4-yl)-5H-pyrrolo[2,3-b]pyrazin-7-yl]pyrimidin-2-ylamine] | 260 | 77 | –
13 | CCC(O)(c1cc(-c2c[nH]c3ncc(-c4cnn(C)c4)nc23)nc(N)n1)c1ccccc1F (stereo not drawn) [A24, 1-{2-Amino-6-[2-(1-methyl-1H-pyrazol-4-yl)-5H-pyrrolo[2,3-b]pyrazin-7-yl]-pyrimidin-4-yl}-1-(2-fluorophenyl)propan-1-ol] | 92 | 54 | –
14 | CCC(O)(c1cccc(F)c1)c1cc(-c2c[nH]c3ncc(-c4cnn(C)c4)nc23)nc(N)n1 (stereo not drawn) [A25, 1-{2-Amino-6-[2-(1-methyl-1H-pyrazol-4-yl)-5H-pyrrolo[2,3-b]pyrazin-7-yl]-pyrimidin-4-yl}-1-(3-fluorophenyl)propan-1-ol] | 110 | 36 | –
15 | CCC(O)(c1cc(-c2c[nH]c3ncc(-c4cnn(C)c4)nc23)nc(N)n1)c1ccncc1F (stereo not drawn) [A26, 1-{2-Amino-6-[2-(1-methyl-1H-pyrazol-4-yl)-5H-pyrrolo[2,3-b]pyrazin-7-yl]-pyrimidin-4-yl}-1-(3-fluoropyridin-4-yl)propan-1-ol] | 580 | 44 | –
16 | CCC(OCOC)(c1cc(-c2c[nH]c3ncc(-c4cnn(C)c4)nc23)nc(N)n1)c1ccncc1F (stereo not drawn) [A27, 4-[1-(3-Fluoropyridin-4-yl)-1-methoxymethoxypropyl]-6-[2-(1-methyl-1H-pyrazol-4-yl)-5H-pyrrolo[2,3-b]pyrazin-7-yl]pyrimidin-2-ylamine] | 600 | 90 | –
17 | CCC(O)(c1ccncc1)c1cc(-c2c[nH]c3ncc(-c4cnn(C)c4)nc23)nc(N)n1 (stereo not drawn) [A28, 1-{2-Amino-6-[2-(1-methyl-1H-pyrazol-4-yl)-5H-pyrrolo[2,3-b]pyrazin-7-yl]-pyrimidin-4-yl}-1-pyridin-4-ylpropan-1-ol] | 160 | 17 | –
18 | CC(C)n1cc(-c2cnc3[nH]cc(-c4cc(C(C)(O)c5ccccc5F)nc(N)n4)c3n2)cn1 (stereo not drawn) [A33, 1-{2-Amino-6-[2-(1-isopropyl-1H-pyrazol-4-yl)-5H-pyrrolo[2,3-b]pyrazin-7-yl]-pyrimidin-4-yl}-1-(2-fluorophenyl)ethanol] | 250 | 350 | –
